Laboratory results: patent US20100256145A1, “USE OF KCNQ POTASSIUM CHANNEL OPENERS FOR REDUCING SYMPTOMS OF OR TREATING DISORDERS OR CONDITIONS WHEREIN THE DOPAMINERGIC SYSTEM IS DISRUPTED” (H. LUNDBECK A/S, priority 2007, published 2010)
Marks after values point to notes of the source that are not given here.

Experiments:
[1] = test system: social behaviours in the rat Tetradic Encounter test; test: Rat Tetradic Encounter test; details: for % of time Agonistic behaviour: sum of defensive and aggressive behaviour
[2] = test system: social behaviours in the Mutual Resident Intruder rat test; test: Mutual Resident Intruder rat test; details: for % of time Agonistic behaviour: sum of defensive and aggressive behaviour
[3] = test system: choice of the large-but-delayed reward (impulsivity); test: Rat T-maze procedure: large-but-delayed vs small-but-immediate reward; type: in vivo; details: juvenile Wistar rats; for % Choice of the large but delayed reward on Control sessions: placebo administered before control (pre-drug and post-drug) sessions of the same group
Description: Subjects. male Wistar AF rats (28-41 days old) (Centre d′Elevage René Janvier, France) were used. […] During the whole study, tap water was provided ad libitum. Food was restricted to 5-10 g/day/animal in order to maintain animals at 65-75% of their free feeding weight
Experimental procedure. The experiments were performed in two identical T-maze apparatus constructed from opaque grey plastic tubing and consisting of a starting runway (30 cm long) and two arms (35 cm long) each leading to a rectangular black plastic goal box (18 cm large, 30 cm wide, 10 cm high). Removable grey plastic guillotine doors could be inserted into the vertical clefts, situated at the entry of the starting runway and at each end of the arms. One of the goal-boxes (left or right, depending on the rats) was constantly provided with a large reward, the other with a small reward. Large and small rewards consisted, respectively, of 5 and 1 pellets (20 mg, Technical & Scientific Equipment GmbH, Germany). The pellets were placed in a translucent food-cup before each trial.
First phase: habituation. Animals were first subjected to two 5-min sessions of habituation. The rat was gently introduced in the starting runway, which then was closed with a guillotine door inserted in the cleft (referred to as c0 in FIG. 1). The animal was allowed to freely explore the apparatus and to eat food rewards placed in the food cups.
Second phase: pretraining. After a door was placed in the cleft c2 near each goal-box, the rat was introduced in the starting runway. When it entered one of the two arms, a door was inserted behind it in the cleft c1 near the choice area and the door placed in cleft c2 was removed. As soon as the animal entered the goal-box, the door was placed again in the cleft c2. The rat was removed from the goal-box as soon as the pellets were eaten (usually within less than 1 min). The animal was then returned to its home cage for an intertrial interval of 2 to 3 min. Each rat was submitted one to five times/day to five trials sessions in this procedure. Training was initiated when the rat selected the arm giving access to the large reward in more than 14 out of 15 trials.
Third phase: training. Rats underwent one to five times/day five trials training sessions during which a delay was introduced before access to the large reward. After a door was placed in the cleft c2 near each goal-box, the rat was introduced in the starting runway. When it entered one of the two arms, a second door was inserted behind it in the cleft c1 near the choice area, so that rat selecting the arm leading to the large reward could be detained in this arm for a period (referred to as the waiting delay) before having access to the reinforcement. Otherwise, if the animal selected the arm leading to the small reward, the door placed in the cleft c2 was immediately opened, allowing the animal to enter the goal-box. At the beginning of training, the waiting delay was 30 sec. Then, if the percentage of choices of the large and delayed reward remained high (i.e. ≧40%) for more than six sessions, it was increased to 45 sec, and if necessary to 60 sec, 90 sec and finally 120 sec. Drug testing began when the animal selected the large and delayed reward in two trials out of five (or less) in two consecutive sessions and in one trial out of five (or less) in the following session.
Drug testing was conducted over six consecutive test-sessions of five trials each, during which the access to the large reward was preceded by the waiting delay. Test sessions were: Two control pre-drug sessions: control pre-drug session 1 and control pre-drug session 2; Two drug sessions: drug session 1 and drug session 2; Two control post-drug sessions: control post-drug session 1 and control post-drug session 2.

[4] = 1 mg/kg s.c. 30 min before test
[5] = 5 mg/kg s.c. 30 min before test

`C[C@H](N)Cc1ccccc1` [Amphetamine, D-amphetamine, reference compound] was tested, and the “% of time Aggressive behaviour” value ([1]; 0.5 mg/kg (positive control)) was 0.1*** % of time, the “% of time Defensive behaviour” value ([1]; 0.5 mg/kg (positive control)) was 1.2*** % of time and the “% of time Friendly behaviour” value ([1]; 0.5 mg/kg (positive control)) was 17.3* % of time. For the same molecule, the “% of time Non-social behaviour” value ([1]; 0.5 mg/kg (positive control)) was 81.4*** % of time, the “% of time Agonistic behaviour” value ([1]; 0.5 mg/kg (positive control)) was 1.4*** % of time and the “% of time Aggressive behaviour” value ([2]; 0.5 mg/kg (positive control)) was 3.9*** % of time. For the same molecule, the “% of time Defensive behaviour” value ([2]; 0.5 mg/kg (positive control)) was 4.0*** % of time, the “% of time Friendly behaviour” value ([2]; 0.5 mg/kg (positive control)) was 5.3 % of time and the “% of time Non-social behaviour” value ([2]; 0.5 mg/kg (positive control)) was 86.8*** % of time. For the same molecule, the “% of time Agonistic behaviour” value ([2]; 0.5 mg/kg (positive control)) was 7.9*** % of time.
In the case of `CNCC[C@@H](Oc1ccccc1C)c1ccccc1` [Atomoxetine, reference compound], the “% Choice of the large but delayed reward on Drug sessions” value (“% Choice … on Drug sessions” for short) ([3]; 1 mg/kg i.p. 30 min before the test) is reported as 40.0 ± 2.2 % and the “% Choice of the large but delayed reward on Control sessions” value (“% Choice … on Control sessions” below) [3] is reported as 10.7 ± 2.3%.
In the case of `Cc1cc(N2CCOCC2)nc(C)c1NC(=O)CC(C)(C)C` [Compound 3, N-(2,4-dimethyl-6-morpholin-4-yl-pyridin-3-yl)-3,3-dimethylbutyramide], the “% Choice … on Drug sessions” value ([3]; 2.5 mg/kg s.c. 30 min before the test) is reported as 25.0 ± 6.7 %, the “% Choice … on Control sessions” value [3] is reported as 8.3 ± 2.8% and the “% of time Aggressive behaviour” value [1, 4] is reported as 5.9 % of time. The “% of time Defensive behaviour” value [1, 4] was 8.5 % of time, the “% of time Friendly behaviour” value [1, 4] was 20.2 % of time and the “% of time Non-social behaviour” value [1, 4] was 65.4 % of time. For the same molecule, the “% of time Agonistic behaviour” value [1, 4] was 14.4 % of time, the “% of time Aggressive behaviour” value [1, 5] was 0.1** % of time and the “% of time Defensive behaviour” value [1, 5] was 0.0*** % of time. For the same molecule, the “% of time Friendly behaviour” value [1, 5] was 20.0 % of time, the “% of time Non-social behaviour” value [1, 5] was 79.9*** % of time and the “% of time Agonistic behaviour” value [1, 5] was 0.1*** % of time. The “% of time Aggressive behaviour” value [2, 4] was 12.0 % of time, the “% of time Defensive behaviour” value [2, 4] was 12.3 % of time and the “% of time Friendly behaviour” value [2, 4] was 3.4 % of time. For the same molecule, the “% of time Non-social behaviour” value [2, 4] was 72.3 % of time, the “% of time Agonistic behaviour” value [2, 4] was 24.3 % of time and the “% of time Aggressive behaviour” value [2, 5] was 0.2*** % of time. The “% of time Defensive behaviour” value [2, 5] was 0.2*** % of time, the “% of time Friendly behaviour” value [2, 5] was 2.3 % of time and the “% of time Non-social behaviour” value [2, 5] was 97.4*** % of time. For the same molecule, the “% of time Agonistic behaviour” value [2, 5] was 0.3*** % of time.
With `COc1cc(N2CCOCC2)cc(C)c1NC(=O)CC1CCCC1` [Compound 2] the “% Choice … on Drug sessions” value ([3]; 1 mg/kg s.c. 30 min before the test) was 33.3 ± 3.3 %, the “% Choice … on Control sessions” value [3] was 11.7 ± 2.5% and the “% of time Aggressive behaviour” value [1, 4] was 5.3 % of time. The “% of time Defensive behaviour” value [1, 4] was 7.2 % of time, the “% of time Friendly behaviour” value [1, 4] was 18.2* % of time and the “% of time Non-social behaviour” value [1, 4] was 69.3 % of time. The “% of time Agonistic behaviour” value [1, 4] was 12.5 % of time, the “% of time Aggressive behaviour” value [1, 5] was 0.4** % of time and the “% of time Defensive behaviour” value [1, 5] was 0.8*** % of time. The “% of time Friendly behaviour” value [1, 5] was 26.2 % of time, the “% of time Non-social behaviour” value [1, 5] was 72.7** % of time and the “% of time Agonistic behaviour” value [1, 5] was 1.2*** % of time. The “% of time Aggressive behaviour” value [2, 4] was 15.5 % of time, the “% of time Defensive behaviour” value [2, 4] was 17.3 % of time and the “% of time Friendly behaviour” value [2, 4] was 4.0 % of time. The “% of time Non-social behaviour” value [2, 4] was 63.1 % of time, the “% of time Agonistic behaviour” value [2, 4] was 32.8*** % of time and the “% of time Aggressive behaviour” value [2, 5] was 0.7*** % of time. The “% of time Defensive behaviour” value [2, 5] was 0.2*** % of time, the “% of time Friendly behaviour” value [2, 5] was 2.4 % of time and the “% of time Non-social behaviour” value [2, 5] was 96.6*** % of time. The “% of time Agonistic behaviour” value [2, 5] was 0.9*** % of time.
